Reference: patent US20100266716A1, “Natural Photodynamic Agents and their use” (priority 2007, published 2010)

Legend:
[1] = system: Salmonella choleraesuis; test: MBEC device biofilm photodynamic killing (Example 1); type: cell-based; design: key to Killing of Salmonella cholerasuis biofilm (eradication or growth): “−” = biofilm eradication at the mentioned conditions (concentration, exposure time and Light source); “+” = biofilm growth; conditions: for Killing of Salmonella cholerasuis biofilm (eradication or growth): 16 Hours exposure; for effective as photodynamic agent in killing biofilm organisms: Salmonella choleraesuis and Staphylococcus aureus biofilm, summary of Table 1
Description: (§1) Test microorganisms included Salmonella choleraesuis, Staphylococcus aureus, foodborne pathogens of humans. Test Compounds included Methylene blue, Hemoglobin (blood product), Hemin (blood product), Protoporphyrin (blood product), Annatto Extract (15% Norbixin), beet juice, Canthaxanthin (10%), Beta-carotene (1%), Purple carmine 50%, Carmine lake 60%, Black Carrot extract, Tomato lycopene (5%), sodium copper chlorophyllin, grape skin extract, paprika oleoresin, riboflavin, saffron, titanium dioxide, FD&C blue No1., turmeric oleoresin, FD&C blue No. 2, FD&C Green No. 3, FD&C Red No. 2 (Amaranth), FD&C Red No. 40, FD&C Yellow No. 5, and FD&C Yellow No. 6. Compounds were prepared as 1%, 0.1%, 0.01%, by weight, dissolved in water.
(§2) The light source was a full spectrum fluorescent light or LED light and the contact time was 1 and 16 hours. The study temperature was 37° C.
(§3) Approximately 10^6 organisms in 150 uL Cation Adjusted Mueller Hinton Broth (CAMHB) were placed in each of the wells of a 96 peg MBEC device. The lid of the 96 peg MBEC device was placed on the bottom plate containing organism. The device was placed on a shaker, set to 110 rpm, and incubated at 37° C. for 24 hours to produce biofilms.
(§4) The challenge plates were set up using a sterile 96-well microtitre plate using aseptic techniques in the following manner (one organism per plate, per light exposure time, per light source). Test solutions (200 uL) were placed into each well. The lid was transferred to the challenge plate and exposed to the various light sources for the prescribed exposure times (16 hours). Following the treatment, the pegs were transferred to the recovery media (“recovery plate”) then wrapped in tin foil and incubated at 37° C. for 18 to 24 hours. The recovery plate(s) was wrapped in tin foil, incubated at 37° C. for 24 hours and read visually and by a plate reader, set to an optical density measurement of 630 nm, to determine Minimum Biofilm Eradication Concentration (MBEC) by looking at growth or no growth.

[2] = system: Staphylococcus aureus; test: as above; type: cell-based; design: key to Killing of Staph aureus biofilm (eradication or growth): “−” = biofilm eradication at the mentioned conditions (concentration, exposure time and Light source); “+” = biofilm growth; conditions: 16 Hours exposure
Description: as §1, §2, §3, §4

| Molecule | Killing of Salmonella cholerasuis biofilm (eradication or growth) ([1]; Fluorescent Light, 0.01%) | Killing of Salmonella cholerasuis biofilm (eradication or growth) ([1]; Fluorescent Light, 0.1%) | Killing of Salmonella cholerasuis biofilm (eradication or growth) ([1]; Fluorescent Light, 1%) | Killing of Salmonella cholerasuis biofilm (eradication or growth) ([1]; LED Light, 0.01%) | Killing of Salmonella cholerasuis biofilm (eradication or growth) ([1]; LED Light, 0.1%) | Killing of Salmonella cholerasuis biofilm (eradication or growth) ([1]; LED Light, 1%) | effective as photodynamic agent in killing biofilm organisms [1] | Killing of Staph aureus biofilm (eradication or growth) ([2]; Fluorescent Light, 0.01%) | Killing of Staph aureus biofilm (eradication or growth) ([2]; Fluorescent Light, 0.1%) | Killing of Staph aureus biofilm (eradication or growth) ([2]; Fluorescent Light, 1%) | Killing of Staph aureus biofilm (eradication or growth) ([2]; LED Light, 0.01%) | Killing of Staph aureus biofilm (eradication or growth) ([2]; LED Light, 0.1%) | Killing of Staph aureus biofilm (eradication or growth) ([2]; LED Light, 1%) |
| --- | --- | --- | --- | --- | --- | --- | --- | --- | --- | --- | --- | --- | --- |
| CCN(Cc1cccc(S(=O)(=O)[O-])c1)c1ccc(C(=C2C=CC(=[N+](CC)Cc3cccc(S(=O)(=O)[O-])c3)C=C2)c2ccccc2S(=O)(=O)[O-])cc1.[Na+].[Na+] [Blue No. 1, FD&C blue No1.] | − | − | − | + | + | + | Effective | + | + | + | + | + | + |
| O=C1/C(=C2\Nc3ccc(S(=O)(=O)[O-])cc3C2=O)Nc2ccc(S(=O)(=O)[O-])cc21.[Na+].[Na+] [Blue No. 2, FD&C blue No. 2] | + | + | + | + | + | + |  | + | + | + | + | + | + |
| CC1=C(/C=C/C(C)=C/C=C/C(C)=C/C=C/C=C(C)/C=C/C=C(C)/C=C/C2=C(C)C(=O)CCC2(C)C)C(C)(C)CCC1=O [Canthaxanthin] | + | + | + | + | + | + |  | + | + | + | + | + | + |
| CCN(Cc1cccc(S(=O)(=O)[O-])c1)c1ccc(C(=C2C=CC(=[N+](CC)Cc3cccc(S(=O)(=O)[O-])c3)C=C2)c2ccc(O)cc2S(=O)(=O)[O-])cc1.[Na+].[Na+] [Green No. 3, FD&C Green No. 3] | + | + | + | + | + | + |  | + | + | + | + | + | + |
| O=S(=O)([O-])c1ccc2c(N=Nc3ccc(S(=O)(=O)[O-])c4ccccc34)c(O)c(S(=O)(=O)[O-])cc2c1.[Na+].[Na+].[Na+] [Red No. 2, FD&C Red No. 2 (Amaranth)] | + | + | + | + | + | + |  | + | + | + | + | + | + |
| COc1cc(S(=O)(=O)[O-])c(C)cc1N=Nc1c(O)ccc2cc(S(=O)(=O)[O-])ccc12.[Na+].[Na+] [Red No. 40, FD&C Red No. 40] | + | + | + | + | + | + |  | + | + | + | + | + | + |
| Cc1cc2nc3c(=O)[nH]c(=O)nc-3n(C[C@H](O)[C@H](O)[C@H](O)CO)c2cc1C [Riboflavin, riboflavin] | + | + | + | + | + | + |  | + | + | + | + | + | + |
| O=C([O-])C1=NN(c2ccc(S(=O)(=O)[O-])cc2)C(=O)C1N=Nc1ccc(S(=O)(=O)[O-])cc1.[Na+].[Na+].[Na+] (centres unmarked) [Yellow No. 5, FD&C Yellow No. 5] | + | + | + | + | + | + |  | + | + | + | + | + | + |
| O=S(=O)([O-])c1ccc(N=Nc2c(O)ccc3cc(S(=O)(=O)[O-])ccc23)cc1.[Na+].[Na+] [Yellow No. 6, FD&C Yellow No. 6] | + | + | + | + | + | + |  | + | + | + | + | + | + |
| CC1=C(/C=C/C(C)=C/C=C/C(C)=C/C=C/C=C(C)/C=C/C=C(C)/C=C/C2=C(C)CCCC2(C)C)C(C)(C)CCC1 [β-Carotene, Beta-carotene] | + | + | + | + | + | + |  | + | + | + | + | + | + |
| Hemoglobin: Hemoglobin (blood product) | − | − | − | + | + | + | Effective | + | + | + | + | + | + |
